Four molecules from ChEMBL document CHEMBL5303573, “Mapping human microbiome drug metabolism by gut bacteria and their genes” (Nature, 2019) can be followed below.

The conditions of data set [1]: roseburia intestinalis, 12 h, 2 µM.
Description: The drug is tested on Roseburia intestinalis strain: L1-82 for biotransformation. The drug concentrations were measured before and after a 12-h incubation by liquid-chromatography-coupled mass spectrometry (LC–MS)
Data set [2] can be described thus: The drug is tested on Anaerotruncus colihominis strain: DSM17241 for biotransformation. The drug concentrations were measured before and after a 12-h incubation by liquid-chromatography-coupled mass spectrometry (LC–MS). The conditions noted are these: 2 µM.
The nature of data set [3]: The drug is tested on Bacteroides caccae strain: ATCC43185 for biotransformation. The drug concentrations were measured before and after a 12-h incubation by liquid-chromatography-coupled mass spectrometry (LC–MS). Conditions: 2 µM.
The nature of data set [4]: The drug is tested on Bacteroides fragilis strain: HMW610 for biotransformation. The drug concentrations were measured before and after a 12-h incubation by liquid-chromatography-coupled mass spectrometry (LC–MS). Conditions: 2 µM.
Data set [5] in a line: The drug is tested on Blautia luti strain: DSM14534 for biotransformation. The drug concentrations were measured before and after a 12-h incubation by liquid-chromatography-coupled mass spectrometry (LC–MS). In kind it is ADME. On the set-up: dose 2 uM, timepoint 0 vs 12 hours. The conditions noted are these: 2 µM.
Data set [6] in a line: The drug is tested on Bacteroides fragilis strain: HMW615 for biotransformation. The drug concentrations were measured before and after a 12-h incubation by liquid-chromatography-coupled mass spectrometry (LC–MS). Conditions: 2 µM.
Data set [7] can be described thus: The drug is tested on Bacteroides uniformis strain: ATCC8492 for biotransformation. The drug concentrations were measured before and after a 12-h incubation by liquid-chromatography-coupled mass spectrometry (LC–MS). Conditions: 2 µM.
A short description of data set [8]: The drug is tested on Bacteroides dorei strain: DSM17855 for biotransformation. The drug concentrations were measured before and after a 12-h incubation by liquid-chromatography-coupled mass spectrometry (LC–MS). Conditions: phocaeicola dorei, 2 µM.
The conditions of data set [9]: bacteroides fragilis, 12 h, 2 µM.
Description: The drug is tested on Bacteroides fragilis strain: NCTC 9343 for biotransformation. The drug concentrations were measured before and after a 12-h incubation by liquid-chromatography-coupled mass spectrometry (LC–MS)
The nature of data set [10]: The drug is tested on Ruminococcus torques strain: ATCC27756 for biotransformation. The drug concentrations were measured before and after a 12-h incubation by liquid-chromatography-coupled mass spectrometry (LC–MS). In kind it is ADME. On the set-up: dose 2 uM, timepoint 0 vs 12 hours. Conditions: 2 µM.
The nature of data set [11]: The drug is tested on Bacteroides xylanisolvens strain: DSM18836 for biotransformation. The drug concentrations were measured before and after a 12-h incubation by liquid-chromatography-coupled mass spectrometry (LC–MS). Conditions: 2 µM.
Data set [12] in a line: The drug is tested on Providencia rettgeri strain: DSM1131 for biotransformation. The drug concentrations were measured before and after a 12-h incubation by liquid-chromatography-coupled mass spectrometry (LC–MS). Details: dose 2 uM, timepoint 0 vs 12 hours. Conditions: 2 µM. Type of data set: ADME.
For data set [13] the following is noted: bacteroides thetaiotaomicron, 12 h, 2 µM.
Description: The drug is tested on Bacteroides thetaiotaomicron strain: 3731 for biotransformation. The drug concentrations were measured before and after a 12-h incubation by liquid-chromatography-coupled mass spectrometry (LC–MS)
Data set [14] can be described thus: The drug is tested on Eubacterium hallii strain: DSM3353 for biotransformation. The drug concentrations were measured before and after a 12-h incubation by liquid-chromatography-coupled mass spectrometry (LC–MS). The conditions noted are these: anaerobutyricum hallii, 2 µM.
The nature of data set [15]: The drug is tested on Clostridium sporogenes strain: ATCC15579 for biotransformation. The drug concentrations were measured before and after a 12-h incubation by liquid-chromatography-coupled mass spectrometry (LC–MS). The conditions noted are these: 2 µM.
For data set [16] the following is noted: segatella copri, 12 h, 2 µM.
Description: The drug is tested on Prevotella copri strain: DSM18205 for biotransformation. The drug concentrations were measured before and after a 12-h incubation by liquid-chromatography-coupled mass spectrometry (LC–MS)
Data set [17] in a line: The drug is tested on Coprococcus comes strain: ATCC27758 for biotransformation. The drug concentrations were measured before and after a 12-h incubation by liquid-chromatography-coupled mass spectrometry (LC–MS). On the set-up: dose 2 uM, timepoint 0 vs 12 hours. In kind it is ADME. The conditions noted are these: 2 µM.
Data set [18] can be described thus: The drug is tested on Bacteroides ovatus strain: ATCC8483 for biotransformation. The drug concentrations were measured before and after a 12-h incubation by liquid-chromatography-coupled mass spectrometry (LC–MS). The conditions noted are these: 2 µM.
A short description of data set [19]: The drug is tested on Bifidobacterium longum subsp. Infantis strain: CCUG52486 for biotransformation. The drug concentrations were measured before and after a 12-h incubation by liquid-chromatography-coupled mass spectrometry (LC–MS). Conditions: 2 µM.
Data set [20] can be described thus: The drug is tested on Collinsella intestinalis strain: DSM13280 for biotransformation. The drug concentrations were measured before and after a 12-h incubation by liquid-chromatography-coupled mass spectrometry (LC–MS). The conditions noted are these: 2 µM.

Take `CN(C)C(=O)C(CCN1CCC(O)(c2ccc(Cl)cc2)CC1)(c1ccccc1)c1ccccc1` [LOPERAMIDE]: the “Bacterial Biotransformation” value in [1] is “Compound metabolized”; in data set [2], “Compound NOT metabolized”; in [3], “Compound NOT metabolized”; in [4] it was “Compound metabolized”; in [5], “Compound NOT metabolized”; in data set [6] it was “Compound NOT metabolized”. Also, the “Bacterial Biotransformation” value in data set [7] is listed as “Compound metabolized”; in [8], “Compound metabolized”; in data set [9], “Compound metabolized”; in [10], “Compound NOT metabolized”; in data set [11], “Compound metabolized”; in data set [12] it was “Compound metabolized”. Also, the “Bacterial Biotransformation” value is recorded as “Compound NOT metabolized” in data set [13], “Compound NOT metabolized” in data set [14] and “Compound metabolized” in data set [15].

On to `CCc1nc(N)nc(N)c1-c1ccc(Cl)cc1` [PYRIMETHAMINE], for which the “Bacterial Biotransformation” value in data set [1], in data set [2], in data set [16], in [3], in data set [17] and in data set [4] was “Compound NOT metabolized” each time. Moreover, the “Bacterial Biotransformation” value in [5], in [6], in data set [18], in data set [7], in [8] and in data set [9] was “Compound NOT metabolized” throughout. Also, the “Bacterial Biotransformation” value in [10], in data set [11], in data set [12], in [13], in data set [19] and in data set [14] was “Compound NOT metabolized” throughout. Also, the “Bacterial Biotransformation” value in [20] and in data set [15] was “Compound NOT metabolized” throughout.

With `COC(=O)[C@H]1[C@H]2C[C@@H]3c4[nH]c5cc(OC)ccc5c4CCN3C[C@H]2C[C@@H](OC(=O)c2cc(OC)c(OC)c(OC)c2)[C@@H]1OC` [RESERPINE], the “Bacterial Biotransformation” value in [1], in data set [2], in [16], in [3], in data set [17] and in data set [4] was “Compound NOT metabolized” throughout. For the same molecule, the “Bacterial Biotransformation” value in [5], in data set [6], in data set [18], in data set [7], in data set [8] and in [9] was “Compound NOT metabolized” each time. Besides, the “Bacterial Biotransformation” value in data set [10], in data set [11], in data set [12], in data set [13], in data set [19] and in [14] was “Compound NOT metabolized” throughout. Moreover, the “Bacterial Biotransformation” value in [20] and in [15] was “Compound NOT metabolized” in each case.

Take `Cc1ccc(/C(=C\CN2CCCC2)c2ccccn2)cc1` [TRIPROLIDINE]: the “Bacterial Biotransformation” value in data set [1], in [2], in data set [16], in data set [3], in data set [4] and in [5] was “Compound NOT metabolized” throughout. The “Bacterial Biotransformation” value in [6], in data set [18], in data set [7], in data set [8], in [9] and in data set [10] was “Compound NOT metabolized” in each case. Further, the “Bacterial Biotransformation” value in data set [11], in data set [12], in data set [13], in data set [14], in data set [20] and in [15] was “Compound NOT metabolized” each time.
